Assay results: PMC7026418, “The kinase polypharmacology landscape of clinical PARP inhibitors” (Scientific Reports, 2020)
Like-named read-outs stand apart in the source and are kept apart here. One block for each compound: values may come before it.

Columns and labels:
Experiment in all cases: biochemical
Parameters in all cases: DiscoveRx KINOMEscan active site-directed competition binding; percent of control kinase bound to immobilised ligand
TLK2 = TLK2 (Homo sapiens, UniProt Q86UE8)
PIK4CB = target: T1, PIK4CB (Homo sapiens, UniProt Q9UBF8)
T1 construct: gene PI4KB

EPHB6 = target: T2, EPHB6 (Homo sapiens, UniProt O15197)
T2 sequence (O15197 1-1021): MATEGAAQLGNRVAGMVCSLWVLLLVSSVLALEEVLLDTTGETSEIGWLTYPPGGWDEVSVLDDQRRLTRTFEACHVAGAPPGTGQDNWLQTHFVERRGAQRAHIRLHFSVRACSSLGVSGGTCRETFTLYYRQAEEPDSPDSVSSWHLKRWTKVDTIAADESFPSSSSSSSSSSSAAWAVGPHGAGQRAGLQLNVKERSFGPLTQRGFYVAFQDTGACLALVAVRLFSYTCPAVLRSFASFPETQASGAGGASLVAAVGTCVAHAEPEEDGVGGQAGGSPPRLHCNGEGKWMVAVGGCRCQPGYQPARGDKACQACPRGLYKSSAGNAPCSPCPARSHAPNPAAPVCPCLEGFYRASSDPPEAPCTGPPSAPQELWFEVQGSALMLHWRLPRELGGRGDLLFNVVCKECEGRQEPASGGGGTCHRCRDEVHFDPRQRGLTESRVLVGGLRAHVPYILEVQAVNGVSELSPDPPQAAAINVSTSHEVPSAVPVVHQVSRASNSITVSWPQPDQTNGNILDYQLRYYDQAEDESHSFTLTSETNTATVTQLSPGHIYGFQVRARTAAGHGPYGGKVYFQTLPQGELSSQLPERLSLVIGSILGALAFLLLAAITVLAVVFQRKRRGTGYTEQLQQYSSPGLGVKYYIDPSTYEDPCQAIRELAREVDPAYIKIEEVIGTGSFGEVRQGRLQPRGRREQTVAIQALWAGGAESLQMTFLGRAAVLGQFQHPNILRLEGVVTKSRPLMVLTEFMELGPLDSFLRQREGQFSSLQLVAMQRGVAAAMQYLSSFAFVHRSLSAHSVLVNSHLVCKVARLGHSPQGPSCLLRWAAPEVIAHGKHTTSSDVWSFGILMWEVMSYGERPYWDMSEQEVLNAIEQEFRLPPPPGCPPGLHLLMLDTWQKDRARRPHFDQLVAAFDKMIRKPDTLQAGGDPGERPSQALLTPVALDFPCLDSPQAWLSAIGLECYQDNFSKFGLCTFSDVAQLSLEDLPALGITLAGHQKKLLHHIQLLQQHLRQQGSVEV

AURKA = target: T3, AURKA (Homo sapiens, UniProt O14965)
T3 sequence (O14965 1-403): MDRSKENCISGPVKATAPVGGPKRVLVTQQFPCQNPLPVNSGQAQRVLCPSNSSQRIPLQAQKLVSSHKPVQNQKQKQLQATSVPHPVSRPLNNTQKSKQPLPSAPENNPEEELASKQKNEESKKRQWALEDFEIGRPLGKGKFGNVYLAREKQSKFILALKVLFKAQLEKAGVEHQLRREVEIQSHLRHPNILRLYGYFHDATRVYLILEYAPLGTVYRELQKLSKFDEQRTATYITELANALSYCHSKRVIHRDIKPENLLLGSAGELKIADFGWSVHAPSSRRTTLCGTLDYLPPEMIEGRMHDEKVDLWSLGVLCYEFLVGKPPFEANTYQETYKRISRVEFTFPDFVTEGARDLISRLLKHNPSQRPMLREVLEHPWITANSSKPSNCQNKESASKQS

ANKK1 = target: T4, ANKK1 (Homo sapiens, UniProt Q8NFD2)
T4 sequence (Q8NFD2 1-765): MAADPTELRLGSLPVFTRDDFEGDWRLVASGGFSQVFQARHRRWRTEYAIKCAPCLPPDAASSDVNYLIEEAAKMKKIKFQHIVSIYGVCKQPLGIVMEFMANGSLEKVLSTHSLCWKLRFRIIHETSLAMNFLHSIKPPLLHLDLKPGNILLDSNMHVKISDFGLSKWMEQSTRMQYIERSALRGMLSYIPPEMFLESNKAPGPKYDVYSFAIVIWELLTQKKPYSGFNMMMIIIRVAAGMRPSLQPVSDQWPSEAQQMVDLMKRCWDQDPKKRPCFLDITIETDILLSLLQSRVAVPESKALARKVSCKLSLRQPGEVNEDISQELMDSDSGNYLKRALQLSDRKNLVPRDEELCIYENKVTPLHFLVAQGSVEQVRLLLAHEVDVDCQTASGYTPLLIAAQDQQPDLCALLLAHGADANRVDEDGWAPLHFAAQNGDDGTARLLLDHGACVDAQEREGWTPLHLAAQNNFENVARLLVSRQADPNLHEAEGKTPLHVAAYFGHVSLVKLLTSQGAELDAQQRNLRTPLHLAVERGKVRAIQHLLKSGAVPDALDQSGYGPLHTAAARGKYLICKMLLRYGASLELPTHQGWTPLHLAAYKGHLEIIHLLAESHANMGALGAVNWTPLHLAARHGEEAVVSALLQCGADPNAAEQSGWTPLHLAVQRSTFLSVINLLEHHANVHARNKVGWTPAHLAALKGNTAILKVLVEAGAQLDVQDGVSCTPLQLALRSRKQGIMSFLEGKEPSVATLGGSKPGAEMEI

[1] = read-out: Niraparib (MK-4827) / %Ctrl @ 10000nM
[2] = read-out: Olaparib / %Ctrl @ 10000nM
[3] = read-out: Rucaparib / %Ctrl @ 10000nM, binding competition, % of control
[4] = read-out: Talazoparib (BMN 673) / %Ctrl @ 10000nM

T1 sequence (Q9UBF8 whole entry): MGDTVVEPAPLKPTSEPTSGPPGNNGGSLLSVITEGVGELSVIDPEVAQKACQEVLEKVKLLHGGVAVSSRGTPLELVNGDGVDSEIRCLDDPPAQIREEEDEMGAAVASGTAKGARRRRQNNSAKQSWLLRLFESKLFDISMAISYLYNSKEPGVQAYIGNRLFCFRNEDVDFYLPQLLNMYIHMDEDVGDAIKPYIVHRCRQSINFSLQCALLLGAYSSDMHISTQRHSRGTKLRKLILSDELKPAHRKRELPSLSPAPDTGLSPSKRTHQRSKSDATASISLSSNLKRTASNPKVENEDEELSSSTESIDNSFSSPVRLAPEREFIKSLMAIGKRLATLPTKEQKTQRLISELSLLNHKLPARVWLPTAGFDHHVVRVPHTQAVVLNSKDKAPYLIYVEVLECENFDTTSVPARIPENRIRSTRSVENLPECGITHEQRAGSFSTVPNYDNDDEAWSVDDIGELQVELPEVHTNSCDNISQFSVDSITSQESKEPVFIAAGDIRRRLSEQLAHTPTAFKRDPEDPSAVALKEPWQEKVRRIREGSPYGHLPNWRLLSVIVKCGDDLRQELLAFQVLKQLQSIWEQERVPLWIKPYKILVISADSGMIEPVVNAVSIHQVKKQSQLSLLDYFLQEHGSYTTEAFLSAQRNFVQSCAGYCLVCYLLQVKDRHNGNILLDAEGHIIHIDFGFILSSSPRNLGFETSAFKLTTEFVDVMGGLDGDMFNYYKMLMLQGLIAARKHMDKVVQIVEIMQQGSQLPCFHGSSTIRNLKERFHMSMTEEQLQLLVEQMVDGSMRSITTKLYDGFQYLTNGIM
TLK2, sequence (Q86UE8 whole entry): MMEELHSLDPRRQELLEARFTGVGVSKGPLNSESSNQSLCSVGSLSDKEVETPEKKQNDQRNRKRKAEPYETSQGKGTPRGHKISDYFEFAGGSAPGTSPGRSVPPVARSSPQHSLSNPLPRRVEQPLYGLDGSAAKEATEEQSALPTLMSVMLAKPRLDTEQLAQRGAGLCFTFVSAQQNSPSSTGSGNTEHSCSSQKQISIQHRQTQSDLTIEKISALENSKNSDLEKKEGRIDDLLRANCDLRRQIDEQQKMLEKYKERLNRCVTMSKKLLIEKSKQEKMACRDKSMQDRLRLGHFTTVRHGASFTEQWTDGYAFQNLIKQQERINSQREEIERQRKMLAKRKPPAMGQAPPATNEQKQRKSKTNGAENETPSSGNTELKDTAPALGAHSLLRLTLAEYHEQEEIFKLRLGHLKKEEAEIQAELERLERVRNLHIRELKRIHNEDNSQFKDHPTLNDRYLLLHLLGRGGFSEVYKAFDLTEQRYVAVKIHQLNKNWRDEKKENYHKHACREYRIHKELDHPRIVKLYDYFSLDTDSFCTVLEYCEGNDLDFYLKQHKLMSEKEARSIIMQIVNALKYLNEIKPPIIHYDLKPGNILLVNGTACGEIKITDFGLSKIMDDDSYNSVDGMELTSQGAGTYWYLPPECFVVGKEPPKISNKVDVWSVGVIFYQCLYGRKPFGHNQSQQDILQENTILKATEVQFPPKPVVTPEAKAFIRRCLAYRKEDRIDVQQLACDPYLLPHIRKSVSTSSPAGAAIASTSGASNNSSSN

SMILES: NC(=O)c1cccc2cn(-c3ccc([C@@H]4CCCNC4)cc3)nc12 [Niraparib]
percent of control binding at 10 µM (TLK2; [1]): 95% | percent of control binding at 10 µM (PIK4CB; [1]): 94% | percent of control binding at 10 µM (EPHB6; [1]): 34% | percent of control binding at 10 µM (AURKA; [1]): 25% | percent of control binding at 10 µM (ANKK1; [1]): 100%

percent of control binding at 10 µM (TLK2; [2]): 95% | percent of control binding at 10 µM (PIK4CB; [2]): 94% | percent of control binding at 10 µM (EPHB6; [2]): 81% | percent of control binding at 10 µM (AURKA; [2]): 91% | percent of control binding at 10 µM (ANKK1; [2]): 90%
SMILES: O=C(c1cc(Cc2n[nH]c(=O)c3ccccc23)ccc1F)N1CCN(C(=O)C2CC2)CC1 [Olaparib]

percent of control binding at 10 µM (TLK2; [3]): 84% | percent of control binding at 10 µM (PIK4CB; [3]): 78% | percent of control binding at 10 µM (EPHB6; [3]): 50% | percent of control binding at 10 µM (AURKA; [3]): 75% | percent of control binding at 10 µM (ANKK1; [3]): 71%
SMILES: CNCc1ccc(-c2[nH]c3cc(F)cc4c3c2CCNC4=O)cc1 [Rucaparib]

percent of control binding at 10 µM (TLK2; [4]): 84% | percent of control binding at 10 µM (PIK4CB; [4]): 81% | percent of control binding at 10 µM (EPHB6; [4]): 84% | percent of control binding at 10 µM (AURKA; [4]): 84% | percent of control binding at 10 µM (ANKK1; [4]): 100%
SMILES: Cn1ncnc1[C@H]1c2n[nH]c(=O)c3cc(F)cc(c23)N[C@@H]1c1ccc(F)cc1 [Talazoparib]
